From patent US7189720B2 (H. Lundbeck A/S, priority 1999, dated 2007)

target: T1, human Y5 receptor (Homo sapiens, UniProt Q15761); experiment: Radioligand binding to membranes, cloned human Y5 receptor; conditions: Table 1; read-out: Ki (nM) hNPY-5
T1 construct: expressed in transfected cells; host or cells: mouse fibroblast LM(tk-) cells, e.g. L-hY5-7 (ATCC CRL-11995)
T1 sequence (Q15761 1-445): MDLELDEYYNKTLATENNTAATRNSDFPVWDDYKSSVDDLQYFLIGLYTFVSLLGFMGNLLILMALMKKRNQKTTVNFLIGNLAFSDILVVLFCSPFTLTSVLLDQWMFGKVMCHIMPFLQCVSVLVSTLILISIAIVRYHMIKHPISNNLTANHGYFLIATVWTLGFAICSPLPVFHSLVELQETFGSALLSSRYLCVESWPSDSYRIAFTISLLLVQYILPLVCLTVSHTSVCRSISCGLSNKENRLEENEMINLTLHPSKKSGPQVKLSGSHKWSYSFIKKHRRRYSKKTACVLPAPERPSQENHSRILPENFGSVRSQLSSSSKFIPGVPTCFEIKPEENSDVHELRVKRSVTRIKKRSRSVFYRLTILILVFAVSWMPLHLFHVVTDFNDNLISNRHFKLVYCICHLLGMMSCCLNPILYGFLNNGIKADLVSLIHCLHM

Ki | SMILES
194 nM | CC(C)Nc1nc(NCCN(C)C)nc(NCC2CCC(CNS(=O)(=O)c3cccc4ccccc34)CC2)n1 (stereo not shown) [Example 14, N1-{[4-({[4-{[2-(dimethylamino)ethyl]amino}-6-(isopropylamino)-1,3,5-triazin-2-yl]amino}methyl)cyclohexyl]methyl}-1-naphthalenesulfonamide]
83 nM | CC(C)Nc1nc(NCCCn2ccnc2)nc(NCC2CCC(CNS(=O)(=O)c3cccc4ccccc34)CC2)n1 (stereo not shown) [Example 15, N1-[4-([4-[3-(1H-1-imidazolyl)propyl]amino-6-(isopropylamino)-1,3,5-triazin-2-yl]aminomethyl)cyclohexyl]methyl-1-naphthalenesulfonamide]
6 nM | CCCCCNc1nc(NCC2CCC(CNS(=O)(=O)c3cccc4ccccc34)CC2)nc(NC(C)C)n1 (stereo not shown) [Example 9, N1-[4-([4-(isopropylamino)-6-(pentylamino)-1,3,5-triazin-2-yl]aminomethyl)cyclohexyl]methyl-1-naphthalenesulfonamide]
22 nM | CCCCNc1nc(NCC2CCC(CNS(=O)(=O)c3cccc4ccccc34)CC2)nc(NC(C)C)n1 (stereo not shown) [Example 6, N1-[4-([4-(butylamino)-6-(isopropylamino)-1,3,5-triazin-2-yl]aminomethyl)cyclohexyl]methyl-1-naphthalenesulfonamide]
7 nM | CCNc1nc(NCC2CCC(CNS(=O)(=O)c3cccc4ccccc34)CC2)nc(NC(C)C)n1 (stereo not shown) [Example 2, N1-[4-([4-(ethylamino)-6-(isopropylamino)-1,3,5-triazin-2-yl]aminomethyl)cyclohexyl]methyl-1-naphthalenesulfonamide]
18 nM | COCCNc1nc(NCC2CCC(CNS(=O)(=O)c3cccc4ccccc34)CC2)nc(NC(C)C)n1 (stereo not shown) [Example 12, N1-(4-[(4-(isopropylamino)-6-[(2-methoxyethyl)amino]-1,3,5-triazin-2-ylamino)methyl]cyclohexylmethyl)-1-naphthalenesulfonamide]

same assay, conditions: Table 2; read-out: Ki (nM) hNPY-5

Ki | SMILES
71 nM | CCNc1nc(NCC)nc(NCC2CCC(CNS(=O)(=O)c3oc(C)nc3C)CC2)n1 (stereo not shown) [Example 36, N5-[4-([4,6-di(ethylamino)-1,3,5-triazin-2-yl]aminomethyl)cyclohexyl]methyl-2,4-dimethyl-1,3-oxazole-5-sulfonamide]
427 nM | CCNc1nc(NCC)nc(NCC2CCC(CNS(=O)(=O)c3cccnc3)CC2)n1 (stereo not shown) [Example 34, N3-[4-([4,6-di(ethylamino)-1,3,5-triazin-2-yl]aminomethyl)cyclohexyl]methyl-3-pyridinesulfonamide]
82 nM | CCNc1nc(NCC)nc(NCC2CCC(CNS(=O)(=O)c3ccc(OC)cc3)CC2)n1 (stereo not shown) [Example 35, N1-[4-([4,6-di(ethylamino)-1,3,5-triazin-2-yl]aminomethyl)cyclohexyl]methyl-4-methoxy-1-benzenesulfonamide]

same assay, conditions: Table 3; read-out: Ki (nM) hNPY-5

Ki | SMILES
59 nM | CC(C)Nc1nc(NCC2CCC(CNS(=O)(=O)N3CCCCC3)CC2)nc(N2CCCCC2)n1 (stereo not shown) [Example 45, N1-[4-([4-(isopropylamino)-6-piperidino-1,3,5-triazin-2-yl]aminomethyl)cyclohexyl]methyl-1-piperidinesulfonamide]
3510 nM | CN(C)S(=O)(=O)NCC1CCC(CNc2nc(N3CCOCC3)nc(N3CCOCC3)n2)CC1 (stereo not shown) [Example 50, N′-[(4-[(4,6-dimorpholino-1,3,5-triazin-2-yl)amino]methylcyclohexyl)methyl]-N,N-dimethylsulfamide]

SMILES | Ki
CC(C)(C)c1ccc(S(=O)(=O)NCC2CCC(CNc3nc(N4CCCC4)nc(N4CCCC4)n3)CC2)cc1 (stereo not shown) [Example 46, N1-[(4-[(4,6-ditetrahydro-1H-1-pyrrolyl-1,3,5-triazin-2-yl)amino]methylcyclohexyl)methyl]-4-(tert-butyl)-1-benzenesulfonamide] | 68 nM

same assay, conditions: Table 4; read-out: Ki (nM) hNPY-5

Ki | SMILES
> 100000 nM | CCNc1nc(NCC)nc(NCCCn2ccnc2)n1 [Example 57, N2,N4-diethyl-N6-[3-(1H-1-imidazolyl)propyl]-1,3,5-triazine-2,4,6-triamine]

same assay, conditions: Table 5; read-out: Ki, nM hNPY-5

Ki | SMILES
4 nM | COc1ccc(C)cc1S(=O)(=O)N[C@H]1CC[C@H](CNc2nc(-c3ccccn3)cs2)CC1 [Example 83, trans-2-(4-(2-Methoxy-5-methylphenyl)sulfonylamino)-cyclohexylmethylamino-4-(2-pyridyl)thiazole dihydrogen chloride]
8.4 nM | O=S(=O)(N[C@H]1CC[C@H](CNc2nc(-c3ccccn3)cs2)CC1)c1ccccc1F [Example 84, trans-2-(4-(2-Fluorophenyl)sulfonylamino)cyclohexylmethyl-amino-4-(2-pyridyl)thiazole dihydrogen chloride]
17.5 nM | CN(C)S(=O)(=O)NC[C@H]1CC[C@H](Nc2nc(-c3nccs3)cs2)CC1 [Example 90, trans-N,N-dimethyl-N′-[(4-[4-(-1,3-thiazol-2-yl)-1,3-thiazol-2-yl]aminocyclohexyl)methyl]sulfamide]
12.3 nM | O=S(=O)(N[C@H]1CC[C@H](CNc2nc(-c3cccnc3)cs2)CC1)c1ccccc1F [Example 86, trans-2-(4-(2-Fluorophenyl)sulfonylamino)cyclohexylmethyl-amino-4-(3-pyridyl)thiazole dihydrogen chloride]

same assay, conditions: Table 6; read-out: Ki, nM hNPY-5

Ki | SMILES
4 nM | Cc1cccc(F)c1S(=O)(=O)NCCCCCCNc1nc2c(s1)CCSc1ccccc1-2 [Example 149, N1-[6-(4,5-Dihydrobenzo[2,3]thiepino[4,5-d][1,3]thiazol-2-ylamino)hexyl]-2-fluoro-6-methyl-1-benzenesulfonamide]
33 nM | Cn1cnc(S(=O)(=O)NC[C@H]2CC[C@H](Nc3nc4c(s3)CCSc3ccccc3-4)CC2)c1 [Example 125, N4-{[4-(4,5-Dihydrobenzo[2,3]thiepino[4,5-d][1,3]thiazol-2-ylamino)cyclohexyl]methyl}-1-methyl-1h-4-imidazolesulfonamide]
69 nM | N#Cc1ccccc1S(=O)(=O)NC[C@H]1CC[C@H](Nc2nc3c(s2)CCSc2ccccc2-3)CC1 [Example 154, N1-{[4-(4,5-Dihydrobenzo[2,3]thiepino[4,5-d][1,3]thiazol-2-ylamino)cyclohexyl]methyl}-2-cyano-1-benzenesulfonamide]
4.1 nM | O=S(=O)(NCCCCCCNc1nc2c(s1)CCSc1ccccc1-2)c1ccc(F)cc1F [Example 145, N1-[6-(4,5-Dihydrobenzo[2,3]thiepino[4,5-d][1,3]thiazol-2-ylamino)hexyl]-2,4-difluoro-1-benzenesulfonamide]
9.7 nM | COc1cccc(Br)c1S(=O)(=O)NCCCCCNc1nc2c(s1)CCSc1ccccc1-2 [Example 132, N1-[5-(4,5-Dihydrobenzo[2,3]thiepino[4,5-d][1,3]thiazol-2-ylamino)pentyl]-2-bromo-6-methoxy-1-benzenesulfonamide]
7.1 nM | O=[N+]([O-])c1ccccc1S(=O)(=O)NCCCCCCNc1nc2c(s1)CCSc1ccccc1-2 [Example 116, N1-[6-(4,5-Dihydrobenzo[2,3]thiepino[4,5-d][1,3]thiazol-2-ylamino)hexyl]-2-nitro-1-benzenesulfonamide]
14.1 nM | COc1ccc(C)cc1S(=O)(=O)NC[C@H]1CC[C@H](Nc2nc3c(s2)CCSc2ccccc2-3)CC1 [Example 119, N1-{[4-(4,5-Dihydrobenzo[2,3]thiepino[4,5-d][1,3]thiazol-2-ylamino)cyclohexyl]methyl}-2-methoxy-5-methyl-1-benzenesulfonamide]
9.1 nM | O=S(=O)(NC[C@H]1CC[C@H](Nc2nc3c(s2)CCSc2ccccc2-3)CC1)c1ccc(F)cc1 [Example 155, N1-{[4-(4,5-Dihydrobenzo[2,3]thiepino[4,5-d][1,3]thiazol-2-ylamino)cyclohexyl]methyl}-4-fluoro-1-benzenesulfonamide]
123 nM | O=C(NCCCCNc1nc2c(s1)CCSc1ccccc1-2)c1cccc2ccccc12 [Example 140, N1-[4-(4,5-Dihydrobenzo[2,3]thiepino[4,5-d][1,3]thiazol-2-ylamino)butyl]-1-naphthamide]
8.3 nM | Cc1cccc(F)c1S(=O)(=O)NCCCCCNc1nc2c(s1)CCSc1ccccc1-2 [Example 134, N1-[5-(4,5-Dihydrobenzo[2,3]thiepino[4,5-d][1,3]thiazol-2-ylamino)pentyl]-2-fluoro-6-methyl-1-benzenesulfonamide]
17.2 nM | Cn1cnc(S(=O)(=O)NCCCCCNc2nc3c(s2)CCSc2ccccc2-3)c1 [Example 111, N4-[5-(4,5-Dihydrobenzo[2,3]thiepino[4,5-d][1,3]thiazol-2-ylamino)pentyl]-1-methyl-1H-4-imidazolesulfonamide]
22.4 nM | O=S(=O)(NCCCCCCNc1nc2c(s1)CCSc1ccccc1-2)c1cccc(C(F)(F)F)c1 [Example 144, N1-[6-(4,5-dihydrobenzo[2,3]thiepino[4,5-d][1,3]thiazol-2-ylamino)hexyl]-3-(trifluoromethyl)-1-benzenesulfonamide]
17.2 nM | O=S(=O)(NCCCCCNc1nc2c(s1)CCSc1ccccc1-2)c1cccc2ccccc12 [Example 127, N1-[5-(4,5-Dihydrobenzo[2,3]thiepino[4,5-d][1,3]thiazol-2-ylamino)pentyl]-1-naphthalenesulfonamide]
3.7 nM | O=S(=O)(NCCCCCNc1nc2c(s1)CCSc1ccccc1-2)c1ccccc1F [Example 128, N1-[5-(4,5-Dihydrobenzo[2,3]thiepino[4,5-d][1,3]thiazol-2-ylamino)pentyl]-2-fluoro-1-benzenesulfonamide]
